Legend:
[1] = target: Alcohol dehydrogenase (Homo sapiens) (UniProt P07327+P08319+P00325+P00326+P40394+P11766+P28332); assay: Binding affinity to alcohol dehydrogenase (unknown origin); format: protein assay
[2] = Lipophilicity, log P of the compound; format: physicochemical; details: octanol/water
Mollusca = assay: Increase in mollusk membrane potential assessed as concentration required to raise 20 mV; format: functional, cell membranes
Escherichia coli = assay: Antimicrobial activity against Escherichia coli; format: functional

Compound	log(1/K) [1]	log(1/C) (Mollusca)	log(1/C) (Escherichia coli)	other results
NC(=O)c1ccc(F)cc1	-2.6	–	–	–
NC(=O)c1ccc([N+](=O)[O-])cc1	-2.6	–	–	–
Cc1cccc(Nc2ccccc2C(=O)O)c1C [MEFENAMIC ACID]	–	3.48	–	logP ([2]; read-out: logP): 0.28
O=C(O)c1cc(Cl)cc(Cl)c1O	–	3.48	–	logP [2]: 0.23
Nc1ccc(S(=O)(=O)Nc2ccc(Cl)cc2)cc1	–	–	4.8	–
CCOc1cccc(NS(=O)(=O)c2ccc(N)cc2)c1	–	–	4.88	–

Reference: ChEMBL document CHEMBL3272026, “On the structure of medicinal chemistry” (J Med Chem, 1976)
